Test results taken from article PMC11106742, “Computational Design of Cyclic Peptide Inhibitors of a Bacterial Membrane Lipoprotein Peptidase” (ACS Chemical Biology, 2024).
Converted amounts (≈) assume the structure as drawn. Numbered stars: 1 amine (or outer) side, 2 acyl side, 3 side chain; on linkers, the order of the positions; unused ones are H or OH. Bridge positions count the residues as written; N and C are the ends. Square brackets hold non-standard residues; d marks the D form. Peptide text beside a SMILES is read from it. * marks the point of attachment. X1 = CCCCCCCCN([C@@H](C)C(=O)[*:2])[*:1]; X4 = CCCCCCCCN([C@H](C)C(=O)[*:2])[*:1]; X2 = CCCCC[C@@H](C)N(CC(=O)[*:2])[*:1]; X6 = CCCCC[C@H](C)N(CC(=O)[*:2])[*:1]; X7 = CCOCCOCCOCCN(CC(=O)[*:2])[*:1]; aIle = CC[C@@H](C)[C@H](N)C(=O)O; N(octyl)Gly = CCCCCCCCNCC(=O)O; aThr = C[C@H](O)[C@H](N)C(=O)O; NMeL = CN[C@@H](CC(C)C)C(=O)O; Octanoyl = CCCCCCCC(=O)*; Propionyl = CCC(=O)*; βAla = NCCC(=O)O

Columns and labels:
[1] = target: T1, PaLspA (Pseudomonas aeruginosa, UniProt Q9HVM5); experiment: biochemical
T1 construct: made in house
T1 sequence (Q9HVM5 1-169): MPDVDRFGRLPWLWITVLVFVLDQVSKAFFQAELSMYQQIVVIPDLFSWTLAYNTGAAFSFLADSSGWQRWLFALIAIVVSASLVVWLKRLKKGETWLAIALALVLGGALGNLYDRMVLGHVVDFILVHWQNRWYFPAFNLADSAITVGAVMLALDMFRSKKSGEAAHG
Description: These analogues were tested for activity against PaLspA using an in vitro fluorescence resonance energy transfer (FRET) activity assay.[21] LspA inhibition was detected by a change in fluorescence upon cleavage of a FRET peptide substrate containing an N-terminal quencher moiety and a C-terminal fluorophore.
(A) Structures of G2a and G2d. (B) Results of the FRET dose–response assays. PaLspA concentration was 40 nM, FRET substrate concentration was 50 μM, and the concentration of inhibitors globomycin, G2a, and G2d ranged from 0–3,000 nM. (C) SDS-PAGE gels and quantitation of the PaLspA gel-shift dose–response assays. ppICP concentration was 12 μM, DOPG concentration was 600 μM, and Lgt concentration was 1.2 μM. The Lgt-catalyzed reaction was allowed to proceed for 60 min at 37 °C, after which inhibitors (0–1000 nM) were added. The PaLspA reaction was initiated by the addition of 100 nM enzyme. The LspA reaction was allowed to proceed for 30 min at 37 °C before being quenched with SDS-PAGE loading buffer (62.5 mM Tris/HCl pH 6.8, 2.5% (w/v) SDS, 0.002% (w/v) bromophenol blue, 0.5 M β-mercaptoethanol, 10% (v/v) glycerol). Quantitation of the gel-shift assays was performed using Image Lab, and data were plotted using GraphPad Prism.
Materials: All reagents were obtained from commercial sources and used without additional purification. All aqueous solutions were prepared using ultrapure laboratory grade water (deionized, filtered, and sterilized) obtained from an in-house ELGA water purification system. […]
Expression and purification of PaLspA, Lgt, EcLspA and ppICP: PaLspA, Lgt and pre-proICP (ppICP) were expressed and purified using previously published protocols (Vogely et al, 2016).[1] EcLspA was expressed and purified as described for PaLspA, with the following modification. The lysis buffer was 50 mM Hepes pH 7.5, 150 mM NaCl, 1 mM TCEP, 10 %(v/v) glycerol. Isolated membranes, containing EcLspA, were solubilized with 1 %(v/v) FC12 for 2 h at […]

[2] = system: E. coli ATCC25922; experiment: microbe, parasite or virus in culture; format: cell-based, Escherichia coli; conditions: ATCC25922
Description: (§1) MIC values were determined in cation-adjusted Mueller-Hinton broth using the broth microdilution method according to CLSI guidelines. Plates were incubated for 16 to 24 h at 37 °C.
(§2) Six biological replicates were performed across three different 2-fold dilution series, starting at concentration of 100 µg/ml, 80 µg/ml or 64 µg/ml. The lowest concentration of antimicrobial inhibiting growth was taken as the MIC. This was established by visual inspection of the medium after the incubation period with a lack of turbidity of the growth medium indicating no growth.[3] […]

[3] = system: A. baumannii AB5075; experiment: microbe, parasite or virus in culture; format: cell-based, Acinetobacter baumannii; conditions: AB5075
Description: as §1, §2

[4] = system: A. baumannii AB17978; experiment: microbe, parasite or virus in culture; format: cell-based, Acinetobacter baumannii; conditions: AB17978
Description: as §1, §2

[5] = system: P. aeruginosa 950; experiment: microbe, parasite or virus in culture; format: cell-based, Pseudomonas aeruginosa; conditions: 950
Description: as §1, §2

[6] = system: E. coli; format: cell-based
Text: Initially, a library of six lipid amide analogues was synthesized via cyclization between the side-chain epsilon -NH2 of an N-terminal L-lysine residue and the C-terminus of an L-serine residue.
Each analogue was acylated with a simple linear lipid, ranging from C3 to C8 in length (Figure S1). To further probe the potential of the amide isostere, five additional analogues were synthesized in which the D- or L-stereoisomer of cationic amino acids diaminobutyric acid (Dab), ornithine (Orn), or Lys were used as the N-terminal cyclization partner. Each analogue was acylated with an octanoyl tail and the subsequent effects of ring size and/or stereochemistry, as well as lipid length, determined by assessing antimicrobial activity against E. coli. Peptides were also screened against S. aureus.
Unfortunately, each analogue was unable to […]

[7] = target: T1, PaLspA; experiment: Enzyme inhibition assay of rationally designed analogues with PaLspA; format: biochemical; conditions: peptide incubated with PaLspA
Description: Additionally, C3 – C5 (peptides S5 – S7) and C7-Gbm(NLys) (peptide S9) amide analogues were submitted for enzyme inhibition assays to determine if these cyclic amide isosteres could still inhibit the target enzyme, LspA. Each peptide was incubated with PaLspA and the observed reduction in enzyme activity reported. […]
found for peptides S5 and S9 (C3 and C7-Gbm(NLys). […]
Four linear globomycin analogues were synthesized to determine the necessity of the cyclic core.
The pentapeptide core of NMeLeu-Ile-Ser-Thr-Gly-OH was synthesized as both the natural allo-version and the cheaper non-allo version in which native residues allo-L-isoleucine and allo-L-threonine were replaced by their cheaper non-allo derivatives. Each linear pentapeptide was synthesized in both its acylated, octyl-derivative and non-acylated form and submitted for analysis of its PaLspA inhibitory activity. No PaLspA inhibition was observed, confirming the importance of globomycin’s cyclic core for antimicrobial activity.

CCCCC[C@H](C)N1CC(=O)N(C)[C@@H](CC(C)C)C(=O)N[C@@H]([C@H](C)CC)C(=O)N[C@@H](CO)C(=O)N[C@@H]([C@H](C)O)C(=O)NCCC1=O [G1a] (cyclo([NMeL][aIle]S[aThr][βAla][X6]))
IC50 [1]: 2940 ± 850 nM

CCCCC[C@@H](C)N1CC(=O)N(C)[C@@H](CC(C)C)C(=O)N[C@@H]([C@H](C)CC)C(=O)N[C@@H](CO)C(=O)N[C@@H]([C@H](C)O)C(=O)NCCC1=O [G1b] (cyclo([NMeL][aIle]S[aThr][βAla][X2]))
MIC [2]: 32 µg/mL (≈ 48.9 µM) | IC50 [1]: 3680 ± 420 nM | MIC [3]: 25 µg/mL (≈ 38.2 µM) | MIC [4]: 16 µg/mL (≈ 24.4 µM) | MIC [5]: 32 µg/mL (≈ 48.9 µM)

CCCCCCCCN1C(=O)CCNC(=O)[C@H]([C@H](C)O)NC(=O)[C@H](CO)NC(=O)[C@H]([C@H](C)CC)NC(=O)[C@H](CC(C)C)N(C)C(=O)[C@@H]1C [G2a] (cyclo([NMeL][aIle]S[aThr][βAla][X1]))
MIC [2]: 32 µg/mL (≈ 46.9 µM) | IC50 [1]: 304 ± 62 nM | MIC [3]: 16 µg/mL (≈ 23.4 µM) | MIC [4]: 12.5 µg/mL (≈ 18.3 µM) | MIC [5]: 32 µg/mL (≈ 46.9 µM)

CCCCCCCCN1C(=O)CCNC(=O)[C@H]([C@H](C)O)NC(=O)[C@H](CO)NC(=O)[C@H]([C@H](C)CC)NC(=O)[C@H](CC(C)C)N(C)C(=O)[C@H]1C [G2b] (cyclo([NMeL][aIle]S[aThr][βAla][X4]))
IC50 [1]: 430 ± 50 nM

CCCCCCCCN1CC(=O)N(C)[C@@H](CC(C)C)C(=O)N[C@@H]([C@H](C)CC)C(=O)N[C@@H](CO)C(=O)N[C@@H]([C@H](C)O)C(=O)NCCC1=O [G2c] (cyclo([NMeL][aIle]S[aThr][βAla][N(octyl)Gly]))
IC50 [1]: 920 ± 70 nM

CCOCCOCCOCCN1CC(=O)N(C)[C@@H](CC(C)C)C(=O)N[C@@H]([C@H](C)CC)C(=O)N[C@@H](CO)C(=O)N[C@@H]([C@H](C)O)C(=O)NCCC1=O [G2e] (cyclo([NMeL][aIle]S[aThr][βAla][X7]))
IC50 [1]: 6160 ± 840 nM

CC[C@@H](C)[C@H](NC(=O)[C@H](CC(C)C)NC)C(=O)N[C@@H](CO)C(=O)N[C@H](C(=O)NCC(=O)O)[C@H](C)O [S1, HN-Globomycin] (H-[NMeL][aIle]S[aThr]G-OH)
MIC [6]: > 200 µg/mL

CC[C@H](C)[C@H](NC(=O)[C@H](CC(C)C)NC)C(=O)N[C@@H](CO)C(=O)N[C@H](C(=O)NCC(=O)O)[C@@H](C)O [S2, Non-alloHN-Globomycin] (H-[NMeL]ISTG-OH)
MIC [6]: > 200 µg/mL

CCCCCCCC(=O)N(C)[C@@H](CC(C)C)C(=O)N[C@H](C(=O)N[C@@H](CO)C(=O)N[C@H](C(=O)NCC(=O)O)[C@H](C)O)[C@H](C)CC [S3, Octanoyl-Globomycin] (Octanoyl-[NMeL][aIle]S[aThr]G-OH)
MIC [6]: > 200 µg/mL

CCCCCCCC(=O)N(C)[C@@H](CC(C)C)C(=O)N[C@H](C(=O)N[C@@H](CO)C(=O)N[C@H](C(=O)NCC(=O)O)[C@@H](C)O)[C@@H](C)CC [S4, Non-alloOctanoyl-Globomycin] (Octanoyl-[NMeL]ISTG-OH)
MIC [6]: > 200 µg/mL

CCC(=O)N[C@H]1CCCCNC(=O)[C@H](CO)NC(=O)[C@H](CO)NC(=O)[C@H]([C@H](C)CC)NC(=O)[C@H](CC(C)C)N(C)C1=O [S5, C3-Globomycin(N-Lys)] (Propionyl-K[NMeL][aIle]SS; lactam 1-C)
reduction in PaLspA enzyme activity (in words) [7]: moderate decrease in enzyme activity | MIC [6]: > 200 µg/mL
